In US7022716B2, “Cyclic amine phenyl beta-3 adrenergic receptor agonists” (Wyeth, priority 2000, dated 2006):

Target: T1, human β3 adrenergic receptor (Homo sapiens, UniProt P13945)
T1 construct: Full length β3 AR clones (402 amino acids) containing the last 6 amino acids of hβ3-AR are prepared; expressed in transfected cells; host or cells: CHO (Chinese hamster ovary) cells
Experiment: cAMP (SPA) response in CHO cells transfected with human β3 adrenergic receptor
Assay type: cell-based
Parameters: key: fraction of maximal isoproterenol (10^-5 M) response
Conditions: maximal response relative to maximal response of isoproterenol at 10^-5 M
Protocol: Binding to the receptors was measured in Chinese Hamster ovary (CHO) cells that were transfected with adrenergic receptors.
The corresponding primer sequences are described in Mantzoros, C. […] The four fragments are ligated into a pUC 18 plasmid (Gibco-BRL) and sequenced.
CHO cells were grown in 24-well tissue culture plates in Dulbecco's Modified Eagle Media with 10% fetal bovine serum, MEM non-essential amino acids, Penicillin-Streptompycin and Geneticin. On the day of test procedure, growth medium was replaced with preincubation media (Dulbecco's Modified Eagle, Media) and incubated for 30 minutes at 37° C. […] Test compounds were tested over a concentration range of 10^−9 M to 10^−5 M for β3 cells and 10^−8 to 10^−4 M for β1 and β2 transfected cells. Isoproterenol (10^−5 M) was used as an internal standard for comparison of activity. Cells were incubated at 37° C. on a rocker for 30 min with the β3 cells and 15 min for β1 and β2 cells. Incubation was stopped with the addition of 0.2N HCl and neutralized with 2.5N NaOH. The plates, containing the cells and neutralized media, were stored at −20 degrees celsius until ready to test for cAMP using the SPA test kit (Amersham).
Data Analysis and Results: Data collected from the SPA test procedure were analyzed as percent of the maximal isoproterenol response at 10^−5 M. Activity curves were plotted using the SAS statistical and graphics software.

T1 sequence (P13945 whole entry): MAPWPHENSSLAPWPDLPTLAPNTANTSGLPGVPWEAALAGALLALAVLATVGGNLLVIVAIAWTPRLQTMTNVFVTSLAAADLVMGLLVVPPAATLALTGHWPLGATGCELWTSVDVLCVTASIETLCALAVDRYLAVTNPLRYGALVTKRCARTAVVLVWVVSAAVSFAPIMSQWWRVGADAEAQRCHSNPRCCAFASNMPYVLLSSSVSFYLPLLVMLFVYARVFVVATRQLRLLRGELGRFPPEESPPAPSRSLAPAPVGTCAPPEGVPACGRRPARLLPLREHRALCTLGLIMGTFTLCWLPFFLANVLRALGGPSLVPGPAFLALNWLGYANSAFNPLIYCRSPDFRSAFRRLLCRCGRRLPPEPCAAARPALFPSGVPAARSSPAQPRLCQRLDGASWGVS

Molecule | IA(β3)
O=[N+]([O-])c1ccc(Oc2c(Cl)cc(S(=O)(=O)Nc3ccc(N4CCC(NCC(O)c5cccc(O)c5)CC4)cc3)cc2Cl)c(Cl)c1 (centres unmarked) [Example 354, 3,5-Dichloro-4-(2-chloro-4-nitrophenoxy)-N-[4-(4-{[2-hydroxy-2-(3-hydroxyphenyl)-ethyl]amino}-1-piperidinyl)phenyl]benzenesulfonamide] | 0.73
CC(=O)Nc1ccc(S(=O)(=O)Nc2ccc(N3CCC(NC[C@H](O)COc4ccccc4)CC3)cc2)cc1 [Example 272, N-(4-{[4-(4-{[(2S)-2-Hydroxy-3-phenoxypropyl]amino}-1-piperidinyl)anilino]-sulfonyl}phenyl)acetamide] | 0.57
O=S(=O)(Nc1ccc(N2CCC(NCC(O)c3cccc(O)c3)CC2)cc1)c1ccc(Oc2ncc(C(F)(F)F)cc2Cl)cc1 (centres unmarked) [Example 351] | 0.76
CCOC(=O)CC(=O)Nc1ccc(N2CCC(NC[C@H](O)c3ccc(O)c(NS(C)(=O)=O)c3)CC2)cc1 [Example 371, Ethyl 3-(4-{4-[((2R)-2-hydroxy-2-{4-hydroxy-3-[(methylsulfonyl)amino]phenyl}-ethyl)-amino]-1-piperidinyl}anilino)-3-oxopropanoate] | 0.91
CCOC(=O)c1ccc(S(=O)(=O)Nc2ccc(N3CCC(NC[C@H](O)c4ccc(O)c(NS(C)(=O)=O)c4)CC3)cc2)cc1 [Example 318, Ethyl4-[(4-{4-[((2R)-2-hydroxy-2-{4-hydroxy-3-[(methylsulfonyl)amino]phenyl}ethyl)-amino]-1-piperidinyl}anilino)sulfonyl]benzoate] | 1
COc1ccc(S(=O)(=O)Nc2ccc(N3CCC(NC[C@H](O)COc4ccc(O)c(NS(C)(=O)=O)c4)CC3)cc2)cc1OC [Example 308, N-(4-{4-[((2S)-2-Hydroxy-3-{4-hydroxy-3-[(methylsulfonyl)amino]phenoxy}propyl)-amino]-1-piperidinyl}phenyl)-4-dimethoxybenzenesulfonamide] | 1.4
CC(=O)Nc1ccc(S(=O)(=O)Nc2ccc(N3CCC(NC[C@H](O)c4ccccc4)CC3)cc2)cc1 [Example 258, N-(4-{4-[4-((2R)-2-Hydroxy-2-phenyl-ethylamino)-piperidin-1-yl]-phenylsulfamoyl}-phenyl)-acetamide] | 0.7
O=S(=O)(Nc1ccc(N2CCC(NC[C@H](O)COc3ccc(O)cc3)CC2)cc1)c1ccc(-c2ccccn2)s1 [Example 293, N-[4-(4-{[(2S)-2-Hydroxy-3-(4-hydroxyphenoxy)propyl]amino}-1-piperidinyl)phenyl]-5-(2-pyridinyl)-2-thiophenesulfonamide] | 0.94
CC(=O)Nc1ccc(S(=O)(=O)Nc2ccccc2N2CCC(NCC(O)c3cccc(O)c3)CC2)cc1 (centres unmarked) [Example 264, N-(4-{[2-(4-{[2-Hydroxy-2-(3-hydroxyphenyl)ethyl]amino}-1-piperidinyl)anilino]-sulfonyl}phenyl)acetamide] | 0.37
O=C(NCc1ccc(S(=O)(=O)Nc2ccc(N3CCC(NCC(O)c4cccc(O)c4)CC3)cc2)s1)c1ccccc1 (centres unmarked) [Example 349, N-[(5-{[4-(4-{[2-Hydroxy-2-(3-hydroxyphenyl)ethyl]amino}-1-piperidinyl)-anilino]sulfonyl}-2-thienyl)methyl]benzamide] | 1.26
CCCCCCNC(=O)Nc1ccc(S(=O)(=O)Nc2ccc(N3CCC(NC[C@H](O)COc4ccc(O)c(NS(C)(=O)=O)c4)CC3)cc2)cc1 [Example 310] | 1
CS(=O)(=O)Nc1cc([C@@H](O)CNC2CCN(c3ccc(NS(=O)(=O)c4cccnc4)cc3)CC2)ccc1O [Example 326, N-(4-{4-[((2R)-2-Hydroxy-2-{4-hydroxy-3-[(methylsulfonyl)amino]phenyl}ethyl)amino]-1-piperidinyl}phenyl)-3-pyridinesulfonamide] | 1.3
CS(=O)(=O)Nc1cc([C@@H](O)CNC2CCN(c3ccc(NS(=O)(=O)c4ccc(C(=O)O)cc4)cc3)CC2)ccc1O [Example 317, 4-[(4-{4-[((2R)-2-Hydroxy-2-{4-hydroxy-3-[(methylsulfonyl)amino]phenyl}ethyl)amino]-1-piperidinyl}anilino)sulfonyl]benzoic acid] | 0.97
CC(C)[C@H](NC(=O)c1ccc(N2CCC(NC[C@H](O)c3ccc(O)c(NS(C)(=O)=O)c3)CC2)cc1)C(=O)O [Example 203, (2S)-2-(4-{4-[(2R)-2-Hydroxy-2-(4-hydroxy-3-methanesulfonylamino-phenyl)-ethylamino]-piperidin-1-yl}-benzoylamino)-3-methyl-butyric acid] | 1.1
N#Cc1ccc(S(=O)(=O)N(c2ccc(N3CCC(NC[C@H](O)COc4cccc5[nH]c(=O)[nH]c45)CC3)cc2)S(=O)(=O)c2ccc(C#N)cc2)cc1 [Example 285, 4-Cyano-N-[(4-cyanophenyl)sulfonyl]-N-{4-[4-({(2S)-2-hydroxy-3-[(2-oxo-2,3-dihydro-1H-benzimidazol-4-yl)oxy]propyl}amino)-1-piperidinyl]phenyl}benzenesulfonamide] | 0.76
O=c1[nH]c2cccc(OC[C@@H](O)CNC3CCN(c4ccc(NS(=O)(=O)c5ccc(Cl)c(Cl)c5)cc4)CC3)c2[nH]1 [Example 327, 3,4-Dichloro-N-{4-[4-({(2S)-2-hydroxy-3-[(2-oxo-2,3-dihydro-1H-benzimidazol-4-yl)oxy]propyl}amino)-1-piperidinyl]phenyl}benzenesulfonamide] | 0.86
COc1ccc(S(=O)(=O)Nc2ccc(N3CCC(NC[C@H](O)COc4ccc(O)c5c4CCC(=O)N5)CC3)cc2)cc1OC [Example 303, N-{4-[4-({(2S)-2-Hydroxy-3-[(8-hydroxy-2-oxo-1,2,3,4-tetrahydro-5-quinolinyl)oxy]-propyl}amino)-1-piperidinyl]phenyl}-3,4-dimethoxybenzenesulfonamide] | 0.96
5-[4-(4-{[4-(2S)-2-(3-Bromoisoxazol-5-yl)-2-hydroxyethyl]amino}piperidine-1-yl)benzyl]-1,3-thiazolidine-2,4-dione [Example 122] | 0.46
O=c1[nH]c2cccc(OC[C@@H](O)CNC3CCN(c4ccc(NS(=O)(=O)c5ccc(S(=O)(=O)c6ccc(C(F)(F)F)cn6)s5)cc4)CC3)c2[nH]1 [Example 299] | 1.1
CCCCCCCCS(=O)(=O)Nc1ccc(N2CCC(NC[C@H](O)COc3ccc(O)cc3)CC2)cc1 [Example 304, N-[4-(4-{[(2S)-2-Hydroxy-3-(4-hydroxyphenoxy)propyl]amino}-1-piperidinyl)phenyl]-1-octanesulfonamide] | 0.35
COc1ccc(OC)c(S(=O)(=O)Nc2ccc(N3CCC(NC[C@H](O)COc4cccc5[nH]c(=O)[nH]c45)CC3)cc2)c1 [Example 334, N-{4-[4-({(2S)-2-Hydroxy-3-[(2-oxo-2,3-dihydro-1H-benzimidazol-4-yl)oxy]propyl}-amino)-1-piperidinyl]phenyl}-2,5-dimethoxybenzenesulfonamide] | 0.91
O=C(CN1CCOCC1)Nc1ccc(N2CCC(NC[C@H](O)COc3cccc4[nH]c(=O)[nH]c34)CC2)cc1 [Example 383, N-{4-[4-({(2S)-2-Hydroxy-3-[(2-oxo-2,3-dihydro-1H-benzimidazol-4-yl)oxy]propyl}-amino)-1-piperidinyl]phenyl}-2-(4-morpholinyl)acetamide] | 0.64
CC(=O)Nc1ccc(S(=O)(=O)Nc2ccc(N3CCC(NCC(O)c4ccc(O)cc4O)CC3)cc2)cc1 (centres unmarked) [Example 268, N-(4-{[4-(4-{[2-(2,4-Dihydroxyphenyl)-2-hydroxyethyl]amino}-1-piperidinyl)-anilino]sulfonyl}phenyl)acetamide] | 0.64
COc1ccc(S(=O)(=O)Nc2ccc(N3CCC(NCC(O)c4ccc(O)c(NS(C)(=O)=O)c4)CC3)cc2)cc1OC (centres unmarked) [Example 280, N-(4-{4-[(2-Hydroxy-2-{4-hydroxy-3-[(methylsulfonyl)amino]phenyl}ethyl)amino]-1-piperidinyl}phenyl)-3,4-dimethoxybenzenesulfonamide] | 1.16
O=c1[nH]c2cccc(OC[C@@H](O)CNC3CCN(c4ccc(NS(=O)(=O)c5sc(Cl)cc5Br)cc4)CC3)c2[nH]1 [Example 286, 3-Bromo-5-chloro-N-{4-[4-({(2S)-2-hydroxy-3-[(2-oxo-2,3-dihydro-1H-benzimidazol-4-yl)oxy]propyl}amino)-1-piperidinyl]phenyl}-2-thiophenesulfonamide] | 0.91
COc1ccc(C(=O)Nc2ccc(N3CCC(NCC(O)c4ccc(O)c(NS(C)(=O)=O)c4)CC3)cc2)cc1OC (centres unmarked) [Example 385, N-(4-{4-[(2-Hydroxy-2-{4-hydroxy-3-[(methylsulfonyl)amino]phenyl}ethyl)amino]-1-piperidinyl}phenyl)-3,4-dimethoxybenzamide] | 1.12
